This is an account of results in patent publication US12492188B2, “1H-benzo[D]imidazole derivatives as TLR9 inhibitors for the treatment of fibrosis” (BRISTOL-MYERS SQUIBB COMPANY, priority 2020, dated 2025).

Holding throughout (assay type): cell-based
For one assay, the target named is T1, human TLR9 (Homo sapiens, UniProt Q9NR96).
T1 construct: host or cells: HEK-Blue cells (HEK293-derived reporter line)
T1 sequence (Q9NR96 26-1032): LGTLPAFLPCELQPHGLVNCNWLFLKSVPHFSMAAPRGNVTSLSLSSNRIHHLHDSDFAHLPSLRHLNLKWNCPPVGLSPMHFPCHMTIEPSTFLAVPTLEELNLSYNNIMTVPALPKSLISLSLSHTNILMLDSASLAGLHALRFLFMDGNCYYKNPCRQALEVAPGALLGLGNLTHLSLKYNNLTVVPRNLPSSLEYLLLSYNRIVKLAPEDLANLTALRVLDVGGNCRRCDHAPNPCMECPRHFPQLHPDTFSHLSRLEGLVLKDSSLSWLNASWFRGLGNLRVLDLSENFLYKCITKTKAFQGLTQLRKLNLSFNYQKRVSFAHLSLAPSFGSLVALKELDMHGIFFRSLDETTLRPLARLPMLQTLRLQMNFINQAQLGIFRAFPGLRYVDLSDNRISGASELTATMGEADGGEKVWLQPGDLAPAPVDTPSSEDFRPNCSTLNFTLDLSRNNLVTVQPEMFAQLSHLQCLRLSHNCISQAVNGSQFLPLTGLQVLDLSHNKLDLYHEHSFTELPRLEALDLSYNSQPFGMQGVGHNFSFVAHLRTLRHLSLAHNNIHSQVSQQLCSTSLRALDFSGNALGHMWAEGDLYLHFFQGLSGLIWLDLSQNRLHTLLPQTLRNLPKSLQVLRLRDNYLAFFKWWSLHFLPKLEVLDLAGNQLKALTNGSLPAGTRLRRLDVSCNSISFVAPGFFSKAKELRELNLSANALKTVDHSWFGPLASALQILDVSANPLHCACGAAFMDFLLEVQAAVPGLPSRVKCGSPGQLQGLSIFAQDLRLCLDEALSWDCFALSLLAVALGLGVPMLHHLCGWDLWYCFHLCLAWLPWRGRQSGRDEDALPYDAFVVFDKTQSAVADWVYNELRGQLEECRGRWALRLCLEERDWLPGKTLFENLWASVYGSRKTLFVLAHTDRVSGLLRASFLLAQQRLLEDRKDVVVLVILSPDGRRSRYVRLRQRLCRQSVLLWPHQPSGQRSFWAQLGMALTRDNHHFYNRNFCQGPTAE
Nature of the assay: TLR9 inhibition reporter assay (HEK-Blue cells, secreted embryonic alkaline phosphatase reporter). Summed up: (§1)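 Read-out is SEAP colour from HEK-Blue Detection medium after 22 h at 37 °C, converted to percent inhibition between agonist-plus-DMSO and reference-inhibitor wells. Receptor-overexpressing HEK-Blue cells received compound over 0.05 nM–50 μM for 30 min before agonist: gardiquimod 7.5 μM for TLR7, R848 15.9 μM for TLR8, ODN2006 5 nM for TLR9.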
A general note: Reporter assays use an easily measured gene product as a stand-in for the process of interest.

For another assay, the target named is T2, human TLR7 (Homo sapiens, UniProt Q9NYK1).
T2 construct: host or cells: HEK-Blue cells (HEK293-derived reporter line)
T2 sequence (Q9NYK1 27-1049): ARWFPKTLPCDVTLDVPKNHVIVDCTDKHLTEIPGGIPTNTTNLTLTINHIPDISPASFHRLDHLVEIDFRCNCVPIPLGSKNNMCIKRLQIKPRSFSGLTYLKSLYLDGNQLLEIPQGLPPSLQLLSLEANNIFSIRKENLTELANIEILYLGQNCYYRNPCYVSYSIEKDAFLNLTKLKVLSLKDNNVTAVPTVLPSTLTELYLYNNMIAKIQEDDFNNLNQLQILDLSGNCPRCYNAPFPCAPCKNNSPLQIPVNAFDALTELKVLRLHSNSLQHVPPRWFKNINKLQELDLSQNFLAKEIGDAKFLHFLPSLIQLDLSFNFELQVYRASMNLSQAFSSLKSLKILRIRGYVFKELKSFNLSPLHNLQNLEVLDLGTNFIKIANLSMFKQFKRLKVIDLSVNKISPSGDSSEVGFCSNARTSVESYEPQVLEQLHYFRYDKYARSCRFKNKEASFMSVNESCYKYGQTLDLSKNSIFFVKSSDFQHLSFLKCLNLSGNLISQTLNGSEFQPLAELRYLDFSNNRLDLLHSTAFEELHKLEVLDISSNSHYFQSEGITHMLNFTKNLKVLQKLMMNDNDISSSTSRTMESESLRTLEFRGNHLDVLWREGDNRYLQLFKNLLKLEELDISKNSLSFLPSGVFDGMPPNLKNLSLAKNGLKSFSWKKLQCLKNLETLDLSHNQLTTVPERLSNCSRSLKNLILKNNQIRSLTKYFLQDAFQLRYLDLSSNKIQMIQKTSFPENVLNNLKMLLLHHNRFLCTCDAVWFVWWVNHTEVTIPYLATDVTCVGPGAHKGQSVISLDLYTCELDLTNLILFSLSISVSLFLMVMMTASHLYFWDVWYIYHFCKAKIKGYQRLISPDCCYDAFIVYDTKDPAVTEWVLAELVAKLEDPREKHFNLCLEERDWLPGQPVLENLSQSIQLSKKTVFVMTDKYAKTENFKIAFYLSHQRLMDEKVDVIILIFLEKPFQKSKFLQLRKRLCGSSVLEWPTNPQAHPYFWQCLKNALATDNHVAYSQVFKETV
Nature of the assay: TLR7 inhibition reporter assay (HEK-Blue cells, secreted embryonic alkaline phosphatase reporter). The note with it: HEK-Blue cells overexpressing human TLR7, stimulated with gardiquimod 7.5 μM; read-out: TLR 7 IC50. Summed up:
as §1

In the next assay the target is T3, human TLR8 (Homo sapiens, UniProt Q9NR97).
T3 construct: host or cells: HEK-Blue cells (HEK293-derived reporter line)
T3 sequence (Q9NR97 27-1041): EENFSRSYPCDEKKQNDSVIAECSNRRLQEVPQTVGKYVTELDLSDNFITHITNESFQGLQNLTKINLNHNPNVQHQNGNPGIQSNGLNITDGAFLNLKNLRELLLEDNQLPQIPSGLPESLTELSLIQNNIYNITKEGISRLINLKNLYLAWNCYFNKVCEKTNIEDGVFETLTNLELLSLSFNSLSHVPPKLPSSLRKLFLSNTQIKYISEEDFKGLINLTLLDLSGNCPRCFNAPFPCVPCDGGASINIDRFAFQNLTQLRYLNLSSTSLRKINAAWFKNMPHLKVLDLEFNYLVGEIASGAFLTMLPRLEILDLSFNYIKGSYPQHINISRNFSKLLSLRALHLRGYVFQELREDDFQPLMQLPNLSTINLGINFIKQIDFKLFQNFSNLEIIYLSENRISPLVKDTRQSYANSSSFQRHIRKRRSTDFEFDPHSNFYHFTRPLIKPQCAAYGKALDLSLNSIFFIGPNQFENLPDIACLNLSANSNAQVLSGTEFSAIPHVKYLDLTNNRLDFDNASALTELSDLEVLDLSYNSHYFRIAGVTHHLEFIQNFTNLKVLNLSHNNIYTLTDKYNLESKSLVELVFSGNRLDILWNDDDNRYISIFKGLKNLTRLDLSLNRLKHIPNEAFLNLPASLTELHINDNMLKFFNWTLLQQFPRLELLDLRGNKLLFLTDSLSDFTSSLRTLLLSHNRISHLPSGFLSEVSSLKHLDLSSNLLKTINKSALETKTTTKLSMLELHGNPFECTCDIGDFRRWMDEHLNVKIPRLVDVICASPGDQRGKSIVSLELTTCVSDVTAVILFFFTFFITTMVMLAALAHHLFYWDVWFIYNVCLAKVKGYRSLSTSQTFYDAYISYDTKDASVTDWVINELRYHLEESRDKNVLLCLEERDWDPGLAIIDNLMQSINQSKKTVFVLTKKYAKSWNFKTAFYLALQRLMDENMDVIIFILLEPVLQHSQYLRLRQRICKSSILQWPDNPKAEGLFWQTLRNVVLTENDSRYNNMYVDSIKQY
Nature of the assay: TLR8 inhibition reporter assay (HEK-Blue cells, secreted embryonic alkaline phosphatase reporter). The note with it: HEK-Blue cells overexpressing human TLR8, stimulated with R848 15.9 μM; read-out: TLR 8 IC50. Summed up:
as §1

Setting [1] is: HEK-Blue cells overexpressing human TLR9, stimulated with ODN2006 5 nM, read-out: TLR 9 IC50.
The mark [2] stands for this setting: HEK-Blue human TLR9 reporter cells.

Read-outs that look alike come from different tables or passages of the source.

What is called IC50 is the concentration at which inhibition is half-maximal. Regarding `Cc1cc(C2CCN(C3CC4CCC(C3)N4CC3CC3)CC2)cc2[nH]c(-c3ccc(S(C)(=O)=O)cc3)nc12` (stereo not shown) [Example 335, 6-(1-(8-(cyclopropylmethyl)-8-azabicyclo[3.2.1]octan-3-yl)piperidin-4-yl)-4-methyl-2-(4-(methylsulfonyl)phenyl)-1H-benzo[d]imidazole], the IC50 at human TLR9 (setting [1]) is 130 nM; against human TLR9 (setting [2]) it was 130 nM; on human TLR7 it was over 50000 nM; on human TLR8 it was over 50000 nM.

Regarding `Cc1cc(C2CCN(C3CC4CCC(C3)N4CC3CC3)CC2)cc2[nH]c(-c3ccc(S(C)(=O)=O)cc3)nc12` (stereo not shown) [Example 336, 6-(1-(8-(cyclopropylmethyl)-8-azabicyclo[3.2.1]octan-3-yl)piperidin-4-yl)-4-methyl-2-(4-(methylsulfonyl)phenyl)-1H-benzo[d]imidazole], the IC50 on human TLR9 (setting [1]) is 77 nM; against human TLR9 (setting [2]), 77 nM; on human TLR7, 25400 nM; on human TLR8, over 50000 nM.

With `Cc1cc(C2CCN(C3CCN(C4CCC4)CC3)CC2)cc2c1nc(-c1ccc(S(C)(=O)=O)c(F)c1)n2C` [Example 337, 6-(1′-cyclobutyl-[1,4′-bipiperidin]-4-yl)-2-(3-fluoro-4-(methylsulfonyl)phenyl)-1,4-dimethyl-1H-benzo[d]imidazole], the IC50 was 53 nM at human TLR9 (setting [1]), 53 nM at human TLR9 (setting [2]), 1200 nM at human TLR7 and over 50000 nM at human TLR8.

On to `Cc1cc(C2CCN(C3CCN(CC4CC4)CC3)CC2)cc2c1nc(-c1ccc(S(C)(=O)=O)c(F)c1)n2C` [Example 338, 6-(1′-(cyclopropylmethyl)-[1,4′-bipiperidin]-4-yl)-2-(3-fluoro-4-(methylsulfonyl)phenyl)-1,4-dimethyl-1H-benzo[d]imidazole], for which the IC50 on human TLR9 (setting [1]) is 258 nM; on human TLR9 (setting [2]), 260 nM; on human TLR7, 3800 nM; at human TLR8 it was over 50000 nM.

On to `Cc1cc(C2CCN(C3CCN(C4CC4)CC3)CC2)cc2c1nc(-c1ccc(S(C)(=O)=O)c(F)c1)n2C` [Example 339, 6-(1′-cyclopropyl-[1,4′-bipiperidin]-4-yl)-2-(3-fluoro-4-(methylsulfonyl)phenyl)-1,4-dimethyl-1H-benzo[d]imidazole], for which the concentration for half-maximal inhibition (IC50) at human TLR9 (setting [1]) was 343 nM; against human TLR9 (setting [2]), 340 nM; on human TLR7, 12700 nM; on human TLR8, over 25000 nM.

Consider `Cc1cc(C2CCN(C3CC4CCC(C3)N4CC3CC3)CC2)cc2c1nc(-c1ccc(S(C)(=O)=O)c(F)c1)n2C` (stereo not shown) [Example 341, 6-(1-(8-(cyclopropylmethyl)-8-azabicyclo[3.2.1]octan-3-yl)piperidin-4-yl)-2-(3-fluoro-4-(methylsulfonyl)phenyl)-1,4-dimethyl-1H-benzo[d]imidazole], for which the IC50 at human TLR9 (setting [1]) was 37 nM; against human TLR9 (setting [2]) it was 37 nM; at human TLR7, 2200 nM; on human TLR8, 16700 nM.

As to `Cc1cc(C2CCN(C3CC4CCC(C3)N4CC(C)C)CC2)cc2c1nc(-c1ccc(S(C)(=O)=O)c(F)c1)n2C` (stereo not shown) [Example 342, 2-(3-fluoro-4-(methylsulfonyl)phenyl)-6-(1-(8-isobutyl-8-azabicyclo[3.2.1]octan-3-yl)piperidin-4-yl)-1,4-dimethyl-1H-benzo[d]imidazole], the 50% inhibitory concentration (IC50) was 123 nM at human TLR9 (setting [1]), 120 nM at human TLR9 (setting [2]), 12700 nM on human TLR7 and over 25000 nM on human TLR8.

Consider `Cc1cc(C2CCN(C3CCN(CC(C)C)CC3)CC2)cc2c1nc(-c1ccc(S(C)(=O)=O)c(F)c1)n2C` [Example 343, 2-(3-fluoro-4-(methylsulfonyl)phenyl)-6-(1′-isobutyl-[1,4′-bipiperidin]-4-yl)-1,4-dimethyl-1H-benzo[d]imidazole], for which the IC50 at human TLR9 (setting [1]) was 156 nM; against human TLR9 (setting [2]), 160 nM; at human TLR7, 12600 nM; at human TLR8, over 25000 nM.

For `Cc1cc(C2CCN(C3CC4CCC(C3)N4C(C)C)CC2)cc2c1nc(-c1ccc(S(C)(=O)=O)c(F)c1)n2C` (stereo not shown) [Example 344, 2-(3-fluoro-4-(methylsulfonyl)phenyl)-6-(1-(8-isopropyl-8-azabicyclo[3.2.1]octan-3-yl)piperidin-4-yl)-1,4-dimethyl-1H-benzo[d]imidazole], the IC50 is 12.4 nM at human TLR9 (setting [1]), 120 nM at human TLR9 (setting [2]), 10800 nM on human TLR7 and over 50000 nM at human TLR8.

On to `Cc1cc(C2CCN(C3CC4CCC(C3)N4CC(C)C)CC2)cc2[nH]c(-c3ccc(S(C)(=O)=O)c(F)c3)nc12` (stereo not shown) [Example 346, 2-(3-fluoro-4-(methylsulfonyl)phenyl)-6-(1-(8-isobutyl-8-azabicyclo[3.2.1]octan-3-yl)piperidin-4-yl)-4-methyl-1H-benzo[d]imidazole], for which the IC50 at human TLR9 (setting [1]) was 56 nM; at human TLR9 (setting [2]), 56 nM; at human TLR7 it was 7600 nM; on human TLR8 it was over 25000 nM.
